Source: patent US9079905B2, “Compounds for the treatment of CNS disorders” (Boehringer Ingelheim International GmbH, priority 2008, dated 2015)

Experiments:
human PDE9A2 = target: T1, human PDE9A2 (Homo sapiens, UniProt O76083); test: PDE9A2 enzymatic activity assay (scintillation proximity assay); type: biochemical; details: for IC50: specific IC50 value is within the given range
T1 construct: made in house; host or cells: Sf9 insect cells (infected; crude lysate used as enzyme source)
Protocol: The PDE9A2 enzymatic activity assay was run as scintillation proximity assay (SPA), in general according to the protocol of the manufacturer (Amersham Biosciences, product number: TRKQ 7100).
As enzyme source, lysate (PBS with 1% Triton X-100 supplemented with protease inhibitors, cell debris removed by centrifugation at 13.000 rpm for 30 min) of SF 9 cell expressing the human PDE9A2 was used. The total protein amount included in the assay varied upon infection and production efficacy of the SF9 cells and lay in the range of 0.1-100 ng.
In general, the assay conditions were as follows: • total assay volume: 40 microliter • protein amount: 0.1-50 ng • substrate concentration (cGMP): 20 nanomolar; ˜1 mCi/1 • incubation time: 60 min at room temperature • final DMSO concentration: 0.2-1
The assays were run in 384-well format. The test reagents as well as the enzyme and the substrate were diluted in assay buffer. The assay buffer contained 50 mM Tris, 8.3 mM MgCl2, 1.7 mM EGTA, 0.1% BSA, 0.05% Tween 20; the pH of assay buffer was adjusted to 7.5. The reaction was stopped by applying a PDE9 specific inhibitor (e.g. compounds according to WO04099210 or WO04099211) in excess.
The activity of the positive control (minus the negative control=background) is set to 100% and activity in the presence of test compound is expressed relative to these 100%. Within this setting, an inhibition above 100% might be possible due to the nature of the variation of the positive control within the assay. In the following inhibition of PDE 9A2 is presented for a concentration at 10 μM, if not indicated otherwise.
IC50 can be calculated with GraphPadPrism or other suited software setting the positive control as 100 and the negative control as 0. For calculation of IC50 dilutions of the test compounds (substrates) are to be selected and tested following the aforementioned protocol.

Murine PDE9A = target: T2, Murine PDE9A (Mus musculus, UniProt O70628); details: concentrations below 200 micromolar; cited from earlier work
T2 sequence (O70628 1-534): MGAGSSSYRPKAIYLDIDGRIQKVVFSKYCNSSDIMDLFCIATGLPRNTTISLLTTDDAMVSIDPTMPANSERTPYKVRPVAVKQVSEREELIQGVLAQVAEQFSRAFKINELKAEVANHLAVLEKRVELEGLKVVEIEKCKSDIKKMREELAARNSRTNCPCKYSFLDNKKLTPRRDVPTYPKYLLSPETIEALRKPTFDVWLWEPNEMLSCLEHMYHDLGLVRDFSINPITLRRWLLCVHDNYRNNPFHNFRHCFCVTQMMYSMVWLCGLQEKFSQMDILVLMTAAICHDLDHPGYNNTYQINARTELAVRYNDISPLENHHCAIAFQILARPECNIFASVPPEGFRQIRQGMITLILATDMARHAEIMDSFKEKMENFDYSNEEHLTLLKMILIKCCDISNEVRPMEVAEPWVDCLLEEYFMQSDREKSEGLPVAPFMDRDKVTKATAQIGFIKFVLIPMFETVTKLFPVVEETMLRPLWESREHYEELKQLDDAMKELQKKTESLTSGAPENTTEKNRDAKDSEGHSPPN

human PDE9A = human PDE9A (Homo sapiens, UniProt O76083); details: concentrations of up to 100 micromolar (μM); cited from earlier work
human PDE9A, sequence (O76083 whole entry): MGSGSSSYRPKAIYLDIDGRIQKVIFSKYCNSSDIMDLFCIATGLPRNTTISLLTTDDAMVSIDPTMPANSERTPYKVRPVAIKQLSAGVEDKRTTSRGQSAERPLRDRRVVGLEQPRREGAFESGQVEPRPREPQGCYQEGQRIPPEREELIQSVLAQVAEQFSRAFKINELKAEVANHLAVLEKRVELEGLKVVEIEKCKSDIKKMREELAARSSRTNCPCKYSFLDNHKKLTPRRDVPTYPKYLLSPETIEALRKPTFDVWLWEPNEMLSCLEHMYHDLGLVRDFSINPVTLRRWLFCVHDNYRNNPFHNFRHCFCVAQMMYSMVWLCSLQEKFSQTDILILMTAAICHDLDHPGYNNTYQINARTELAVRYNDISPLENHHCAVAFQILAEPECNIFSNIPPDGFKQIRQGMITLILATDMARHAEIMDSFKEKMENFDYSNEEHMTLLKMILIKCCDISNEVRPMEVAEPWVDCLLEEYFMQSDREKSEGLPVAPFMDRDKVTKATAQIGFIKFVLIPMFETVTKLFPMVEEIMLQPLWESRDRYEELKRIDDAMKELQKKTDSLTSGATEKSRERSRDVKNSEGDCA

[1] = read-out: % Inhibition of PDE 9A2

T1 sequence (O76083 1-533 isoform O76083-2): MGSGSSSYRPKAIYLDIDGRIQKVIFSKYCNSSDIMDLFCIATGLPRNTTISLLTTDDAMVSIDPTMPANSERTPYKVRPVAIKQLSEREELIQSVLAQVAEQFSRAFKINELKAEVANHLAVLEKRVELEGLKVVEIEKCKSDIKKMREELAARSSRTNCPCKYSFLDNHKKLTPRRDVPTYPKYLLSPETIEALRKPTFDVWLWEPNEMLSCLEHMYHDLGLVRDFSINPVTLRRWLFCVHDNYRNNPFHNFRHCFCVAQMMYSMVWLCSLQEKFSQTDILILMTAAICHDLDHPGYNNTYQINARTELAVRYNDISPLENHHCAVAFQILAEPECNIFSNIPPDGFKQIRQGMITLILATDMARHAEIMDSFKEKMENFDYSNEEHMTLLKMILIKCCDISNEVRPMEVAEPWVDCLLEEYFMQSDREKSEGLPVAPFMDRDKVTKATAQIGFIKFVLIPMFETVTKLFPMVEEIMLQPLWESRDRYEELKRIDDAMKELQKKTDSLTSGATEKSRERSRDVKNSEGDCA

Structure (SMILES): O=c1[nH]c(Cc2cc(F)ccc2-c2ccc(F)nc2)nc2c1cnn2C1CCC(F)(F)CC1 [Example 72-7]
- inhibition at 10 µM (human PDE9A2; [1]): 100%
- IC50 (human PDE9A2): 1 to 100 nM

Structure (SMILES): COc1ncccc1-c1ccc(F)cc1Cc1nc2c(cnn2C2CCC(F)(F)CC2)c(=O)[nH]1 [Example 72-8]
- inhibition at 10 µM (human PDE9A2; [1]): 98%
- IC50 (human PDE9A2): 1 to 100 nM

Structure (SMILES): O=c1[nH]c(Cc2cc(F)ccc2-c2cncc(F)c2)nc2c1cnn2C1CCC(F)(F)CC1 [Example 72-9]
- inhibition at 10 µM (human PDE9A2; [1]): 100%
- IC50 (human PDE9A2): 1 to 100 nM

Structure (SMILES): O=c1[nH]c(Cc2ccc(F)cc2-c2ccncc2)nc2c1cnn2C1CCC(F)(F)CC1 [Example 72]
- inhibition at 10 µM (human PDE9A2; [1]): 97%
- IC50 (human PDE9A2): 101 to 1500 nM

Structure (SMILES): Cc1ccc(-c2ccccc2Cc2nc3c(cnn3C3CCC(F)(F)CC3)c(=O)[nH]2)cn1 [Example 73]
- inhibition at 10 µM (human PDE9A2; [1]): 98%
- IC50 (human PDE9A2): 1 to 100 nM

Structure (SMILES): O=c1[nH]c(Cc2ccccc2-c2ccnc(F)c2)nc2c1cnn2C1CCC(F)(F)CC1 [Example 74]
- inhibition at 10 µM (human PDE9A2; [1]): 98%
- IC50 (human PDE9A2): 1 to 100 nM

Structure (SMILES): O=c1[nH]c(Cc2ccccc2-c2ccc(N3CCOCC3)nc2)nc2c1cnn2C1CCC(F)(F)CC1 [Example 75]
- inhibition at 10 µM (human PDE9A2; [1]): 101%
- IC50 (human PDE9A2): 1 to 100 nM

Structure (SMILES): O=c1[nH]c(Cc2ccccc2-c2cncnc2)nc2c1cnn2C1CCC(F)(F)CC1 [Example 76]
- inhibition at 10 µM (human PDE9A2; [1]): 99%
- IC50 (human PDE9A2): 1 to 100 nM

Structure (SMILES): O=c1[nH]c(Cc2ccccc2CCCN2CCOCC2)nc2c1cnn2C1CCC(F)(F)CC1 [Example 78]
- inhibition at 10 µM (human PDE9A2; [1]): 97%
- IC50 (human PDE9A2): 1 to 100 nM

Structure (SMILES): CN(C)C(=O)Cc1ccccc1Cc1nc2c(cnn2C2CCC(F)(F)CC2)c(=O)[nH]1 [Example 79]
- inhibition at 10 µM (human PDE9A2; [1]): 95%
- IC50 (human PDE9A2): 101 to 1500 nM

Structure (SMILES): CN1CCN(C(=O)Cc2ccccc2Cc2nc3c(cnn3C3CCC(F)(F)CC3)c(=O)[nH]2)CC1 [Example 80]
- inhibition at 10 µM (human PDE9A2; [1]): 91%
- IC50 (human PDE9A2): 101 to 1500 nM

Structure (SMILES): O=C(Cc1ccccc1Cc1nc2c(cnn2C2CCC(F)(F)CC2)c(=O)[nH]1)N1CCCCC1 [Example 81]
- inhibition at 10 µM (human PDE9A2; [1]): 95%
- IC50 (human PDE9A2): 101 to 1500 nM

Structure (SMILES): O=C(Cc1ccccc1Cc1nc2c(cnn2C2CCC(F)(F)CC2)c(=O)[nH]1)N1CCOCC1 [Example 82]
- inhibition at 10 µM (human PDE9A2; [1]): 91%
- IC50 (human PDE9A2): 101 to 1500 nM

Structure (SMILES): O=c1[nH]c(Cc2ccccc2CCO)nc2c1cnn2C1CCC(F)(F)CC1 [Example 83]
- inhibition at 10 µM (human PDE9A2; [1]): 88%
- IC50 (human PDE9A2): 101 to 1500 nM

Structure (SMILES): COC(=O)Cc1ccccc1Cc1nc2c(cnn2C2CCC(F)(F)CC2)c(=O)[nH]1 [Example 84]
- inhibition at 10 µM (human PDE9A2; [1]): 81%
- IC50 (human PDE9A2): 101 to 1500 nM

Structure (SMILES): O=c1[nH]c(Cc2cc(F)ccc2-n2cccn2)nc2c1cnn2C1CCC(F)(F)CC1 [Example 89]
- inhibition at 10 µM (human PDE9A2; [1]): 98%
- IC50 (human PDE9A2): 1 to 100 nM

Structure (SMILES): O=c1[nH]c(Cc2cc(F)ccc2-c2ccccn2)nc2c1cnn2C1CCC(F)(F)CC1 [Example 90]
- inhibition at 10 µM (human PDE9A2; [1]): 97%
- IC50 (human PDE9A2): 1 to 100 nM

Structure (SMILES): O=c1[nH]c(Cc2ccccc2-c2ccccn2)nc2c1cnn2C1CCC(F)(F)CC1 [Example 91]
- inhibition at 10 µM (human PDE9A2; [1]): 95%
- IC50 (human PDE9A2): 1 to 100 nM

Structure (SMILES): Cc1ccc(-c2ccccc2Cc2nc3c(cnn3C3CCC(F)(F)CC3)c(=O)[nH]2)o1 [Example 93]
- inhibition at 10 µM (human PDE9A2; [1]): 94%
- IC50 (human PDE9A2): 1 to 100 nM

Structure (SMILES): Cn1cc(-c2cccnc2Cc2nc3c(cnn3C3CCC(F)(F)CC3)c(=O)[nH]2)cn1 [Example 94]
- inhibition at 10 µM (human PDE9A2; [1]): 98%
- IC50 (human PDE9A2): 1 to 100 nM

Structure (SMILES): Cc1ncn(-c2ccccc2Cc2nc3c(cnn3C3CCC(F)(F)CC3)c(=O)[nH]2)n1 [Example 95-1]
- inhibition at 10 µM (human PDE9A2; [1]): 111%
- IC50 (human PDE9A2): 1 to 100 nM

Structure (SMILES): O=c1[nH]c(Cc2ccccc2-n2cccn2)nc2c1cnn2C1CCC(F)(F)CC1 [Example 95]
- inhibition at 10 µM (human PDE9A2; [1]): 97%
- IC50 (human PDE9A2): 1 to 100 nM

Structure (SMILES): O=c1[nH]c(Cc2ncccc2-n2cccn2)nc2c1cnn2C1CCC(F)(F)CC1 [Example 96]
- inhibition at 10 µM (human PDE9A2; [1]): 93%
- IC50 (human PDE9A2): 1 to 100 nM

Structure (SMILES): Cc1nc(-c2ccccc2Cc2nc3c(cnn3C3CCC(F)(F)CC3)c(=O)[nH]2)no1 [Example 97]
- inhibition at 10 µM (human PDE9A2; [1]): 100%
- IC50 (human PDE9A2): 1 to 100 nM

Structure (SMILES): O=c1[nH]c(Cc2ccccc2-c2ccnnc2)nc2c1cnn2C1CCC(F)(F)CC1 [Example 98]
- inhibition at 10 µM (human PDE9A2; [1]): 100%
- IC50 (human PDE9A2): 1 to 100 nM

Structure (SMILES): Cc1nc(-c2ccccc2Cc2nc3c(cnn3C3CCC(F)(F)CC3)c(=O)[nH]2)n[nH]1 [Example 99]
- inhibition at 10 µM (human PDE9A2; [1]): 100%
- IC50 (human PDE9A2): 1 to 100 nM

Structure (SMILES): COc1cccnc1Cc1nc2c(cnn2C2CCC(F)(F)CC2)c(=O)[nH]1 [Example 100]
- inhibition at 10 µM (human PDE9A2; [1]): 95%
- IC50 (human PDE9A2): 101 to 1500 nM

Structure (SMILES): O=c1[nH]c(Cc2ccccc2C2CC2)nc2c1cnn2C1CCC(F)(F)CC1 [Example 103]
- inhibition at 3.3 µM (human PDE9A2; at 3.3 μM, read-out: % Inhibition of PDE 9A2): 96%
- IC50 (human PDE9A2): 1 to 100 nM

Structure (SMILES): O=c1[nH]c(Cc2ccccc2-n2cccc2)nc2c1cnn2C1CCC(F)(F)CC1 [Example 104]
- inhibition at 10 µM (human PDE9A2; [1]): 97%
- IC50 (human PDE9A2): 1 to 100 nM

Structure (SMILES): O=c1[nH]c(Cc2ncccc2C2CC2)nc2c1cnn2C1CCC(F)(F)CC1 [Example 105]
- inhibition at 10 µM (human PDE9A2; [1]): 97%
- IC50 (human PDE9A2): 101 to 1500 nM

Structure (SMILES): Cc1ccn(-c2ccccc2Cc2nc3c(cnn3C3CCC(F)(F)CC3)c(=O)[nH]2)n1 [Example 106]
- inhibition at 10 µM (human PDE9A2; [1]): 83%
- IC50 (human PDE9A2): 1 to 100 nM

Structure (SMILES): Nc1ccccc1Cc1nc2c(cnn2C2CCC(F)(F)CC2)c(=O)[nH]1 [Example 107]
- inhibition at 10 µM (human PDE9A2; [1]): 100%
- IC50 (human PDE9A2): 1 to 100 nM

Structure (SMILES): O=c1[nH]c(Cc2ccccc2-n2cnnc2)nc2c1cnn2C1CCC(F)(F)CC1 [Example 108]
- inhibition at 10 µM (human PDE9A2; [1]): 99%
- IC50 (human PDE9A2): 1 to 100 nM

Structure (SMILES): O=c1[nH]c(Cc2ccccn2)nc2c1cnn2C1CCC(F)CC1 (centres unmarked) [Example 109]
- inhibition at 10 µM (human PDE9A2; [1]): 93%

Structure (SMILES): Cc1cccnc1Cc1nc2c(cnn2C2CCC(F)CC2)c(=O)[nH]1 (centres unmarked) [Example 110]
- inhibition at 10 µM (human PDE9A2; [1]): 95%

Structure (SMILES): O=c1[nH]c(CC2CCC2)nc2c1cnn2C1CCC(F)CC1 (centres unmarked) [Example 111]
- inhibition at 10 µM (human PDE9A2; [1]): 74%
- IC50 (human PDE9A2): 1 to 100 nM

Structure (SMILES): CC(C)Cc1nc2c(cnn2C2CCC(F)CC2)c(=O)[nH]1 (centres unmarked) [Example 112]
- inhibition at 10 µM (human PDE9A2; [1]): 97%
- IC50 (human PDE9A2): 1 to 100 nM

Structure (SMILES): O=c1[nH]c(CC2CCCC2)nc2c1cnn2C1CCC(F)CC1 (centres unmarked) [Example 113]
- inhibition at 10 µM (human PDE9A2; [1]): 98%
- IC50 (human PDE9A2): 1 to 100 nM

Structure (SMILES): CC(C)Cn1c(=O)n(C)c(=O)c2[nH]cnc21 [IBMX]
- inhibition of murine PDE9A (Murine PDE9A): not inhibited
- inhibition on the isolated enzyme (human PDE9A): no inhibition

Structure (SMILES): CC(=O)Nc1ccc(-c2c[nH]c(=O)cn2)cc1 [SKF94120]
- inhibition on the isolated enzyme (human PDE9A): no inhibition

Structure (SMILES): OCCN(CCO)c1nc(N2CCCCC2)c2nc(N(CCO)CCO)nc(N3CCCCC3)c2n1 [dipyridamole]
- inhibition on the isolated enzyme (human PDE9A): no inhibition

Structure (SMILES): COc1ccc(C2CNC(=O)C2)cc1OC1CCCC1 (centres unmarked) [rolipram]
- inhibition on the isolated enzyme (human PDE9A): no inhibition

Structure (SMILES): CCOC(=O)C1=C[C@]2(CC)CCCN3CCc4c(n1c1ccccc41)[C@@H]32 [vinpocetine]
- inhibition on the isolated enzyme (human PDE9A): no inhibition
